Test results taken from patent US10195179B2, “Spiro-lactam NMDA receptor modulators and uses thereof” (Aptinyx Inc., priority 2016, dated 2019).

What was measured:
Set-up in all cases: species or system rat
NR2C = NR2C (Homo sapiens, UniProt Q14957); test: Potentiation of [3H]MK-801 binding, wild-type NMDAR2C; conditions: for NMDAR2C BINDING PROFILE % 1 mM Glycine: relative to 1 mM glycine; for NMDAR2C BINDING PROFILE Conclusion / EC50: wild-type NMDAR2C; for EC50: 0 = no activity, read-out: NMDAR2C BINDING PROFILE −logEC50 (converted)
Description: (§1) Assays were conducted as described by Moskal et al., “GLYX-13: a monoclonal antibody-derived peptide that acts as an N-methyl-D-aspartate receptor modulator,” Neuropharmacology, 49, 1077-87, 2005. The potentiation of [^3H]MK-801 binding (5 nM; 22.5 Ci/mmol) to well washed rat cortical membranes (200 μg) was measured under non-equilibrium conditions (15 min @ 25° C.) in the presence of increasing concentrations of Compound AA or Compound BB.
(§2) FIG. 2A depicts the potentiation of [^3H]MK-801 binding for wild-type NMDAR2 subtypes in the presence of Compound AA. FIG. 2B depicts the potentiation of [^3H]MK-801 binding for wild-type NMDAR2 subtypes in the presence of Compound BB. The following table depicts the results (P means potency and A means activity): […]

NR2D = NR2D (Homo sapiens, UniProt O15399); test: Potentiation of [3H]MK-801 binding, wild-type NMDAR2D; conditions: for NMDAR2D BINDING PROFILE % 1 mM Glycine: relative to 1 mM glycine; for NMDAR2D BINDING PROFILE Conclusion / EC50: wild-type NMDAR2D; for EC50: read-out: NMDAR2D BINDING PROFILE −logEC50 (converted)
Description: as §1, §2

NR2B = NR2B (Homo sapiens, UniProt Q13224); test: Potentiation of [3H]MK-801 binding, wild-type NMDAR2B; conditions: for NMDAR2B BINDING PROFILE % 1 mM Glycine: relative to 1 mM glycine
Description: as §1, §2

NR2A = NR2A (Homo sapiens, UniProt Q12879); test: Potentiation of [3H]MK-801 binding, wild-type NMDAR2A; conditions: for NMDAR2A BINDING PROFILE % 1 mM Glycine: relative to 1 mM glycine; for NMDAR2A BINDING PROFILE Conclusion / EC50: wild-type NMDAR2A; for EC50: 0 = no activity, read-out: NMDAR2A BINDING PROFILE −logEC50 (converted)

Chain of NR2C (Q14957 20-1233, species assumed, other chains not shown): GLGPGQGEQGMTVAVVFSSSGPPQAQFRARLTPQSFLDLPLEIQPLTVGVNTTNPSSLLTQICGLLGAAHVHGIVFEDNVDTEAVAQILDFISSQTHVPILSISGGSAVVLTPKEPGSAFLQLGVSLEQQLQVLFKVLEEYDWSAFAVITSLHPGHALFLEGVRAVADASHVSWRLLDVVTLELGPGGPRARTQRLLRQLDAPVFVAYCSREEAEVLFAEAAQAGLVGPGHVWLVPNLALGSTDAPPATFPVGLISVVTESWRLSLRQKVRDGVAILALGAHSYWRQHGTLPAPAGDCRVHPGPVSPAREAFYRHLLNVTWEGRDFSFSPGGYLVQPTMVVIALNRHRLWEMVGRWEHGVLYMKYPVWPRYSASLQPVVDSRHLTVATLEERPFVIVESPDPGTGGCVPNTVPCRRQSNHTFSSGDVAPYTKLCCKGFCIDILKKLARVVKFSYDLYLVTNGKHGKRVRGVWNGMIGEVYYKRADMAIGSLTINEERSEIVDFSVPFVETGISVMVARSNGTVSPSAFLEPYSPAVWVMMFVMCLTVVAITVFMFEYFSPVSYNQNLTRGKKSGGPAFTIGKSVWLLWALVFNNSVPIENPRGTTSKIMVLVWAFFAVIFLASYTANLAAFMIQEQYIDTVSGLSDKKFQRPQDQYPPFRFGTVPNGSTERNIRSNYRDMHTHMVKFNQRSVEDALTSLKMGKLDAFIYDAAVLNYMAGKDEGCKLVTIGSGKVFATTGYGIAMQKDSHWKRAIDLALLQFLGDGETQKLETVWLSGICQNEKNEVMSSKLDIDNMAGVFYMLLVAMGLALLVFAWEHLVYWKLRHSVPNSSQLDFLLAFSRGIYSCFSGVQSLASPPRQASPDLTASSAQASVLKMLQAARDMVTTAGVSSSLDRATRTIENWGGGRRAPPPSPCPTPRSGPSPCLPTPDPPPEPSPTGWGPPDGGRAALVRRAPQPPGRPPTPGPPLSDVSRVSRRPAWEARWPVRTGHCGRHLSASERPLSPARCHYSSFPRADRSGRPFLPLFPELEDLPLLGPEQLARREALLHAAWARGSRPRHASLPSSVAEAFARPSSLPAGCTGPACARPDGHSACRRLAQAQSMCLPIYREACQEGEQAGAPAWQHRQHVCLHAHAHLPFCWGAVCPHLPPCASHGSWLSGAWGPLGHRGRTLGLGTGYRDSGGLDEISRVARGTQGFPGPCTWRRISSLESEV
Chain of NR2D (O15399 28-1336, species assumed, other chains not shown): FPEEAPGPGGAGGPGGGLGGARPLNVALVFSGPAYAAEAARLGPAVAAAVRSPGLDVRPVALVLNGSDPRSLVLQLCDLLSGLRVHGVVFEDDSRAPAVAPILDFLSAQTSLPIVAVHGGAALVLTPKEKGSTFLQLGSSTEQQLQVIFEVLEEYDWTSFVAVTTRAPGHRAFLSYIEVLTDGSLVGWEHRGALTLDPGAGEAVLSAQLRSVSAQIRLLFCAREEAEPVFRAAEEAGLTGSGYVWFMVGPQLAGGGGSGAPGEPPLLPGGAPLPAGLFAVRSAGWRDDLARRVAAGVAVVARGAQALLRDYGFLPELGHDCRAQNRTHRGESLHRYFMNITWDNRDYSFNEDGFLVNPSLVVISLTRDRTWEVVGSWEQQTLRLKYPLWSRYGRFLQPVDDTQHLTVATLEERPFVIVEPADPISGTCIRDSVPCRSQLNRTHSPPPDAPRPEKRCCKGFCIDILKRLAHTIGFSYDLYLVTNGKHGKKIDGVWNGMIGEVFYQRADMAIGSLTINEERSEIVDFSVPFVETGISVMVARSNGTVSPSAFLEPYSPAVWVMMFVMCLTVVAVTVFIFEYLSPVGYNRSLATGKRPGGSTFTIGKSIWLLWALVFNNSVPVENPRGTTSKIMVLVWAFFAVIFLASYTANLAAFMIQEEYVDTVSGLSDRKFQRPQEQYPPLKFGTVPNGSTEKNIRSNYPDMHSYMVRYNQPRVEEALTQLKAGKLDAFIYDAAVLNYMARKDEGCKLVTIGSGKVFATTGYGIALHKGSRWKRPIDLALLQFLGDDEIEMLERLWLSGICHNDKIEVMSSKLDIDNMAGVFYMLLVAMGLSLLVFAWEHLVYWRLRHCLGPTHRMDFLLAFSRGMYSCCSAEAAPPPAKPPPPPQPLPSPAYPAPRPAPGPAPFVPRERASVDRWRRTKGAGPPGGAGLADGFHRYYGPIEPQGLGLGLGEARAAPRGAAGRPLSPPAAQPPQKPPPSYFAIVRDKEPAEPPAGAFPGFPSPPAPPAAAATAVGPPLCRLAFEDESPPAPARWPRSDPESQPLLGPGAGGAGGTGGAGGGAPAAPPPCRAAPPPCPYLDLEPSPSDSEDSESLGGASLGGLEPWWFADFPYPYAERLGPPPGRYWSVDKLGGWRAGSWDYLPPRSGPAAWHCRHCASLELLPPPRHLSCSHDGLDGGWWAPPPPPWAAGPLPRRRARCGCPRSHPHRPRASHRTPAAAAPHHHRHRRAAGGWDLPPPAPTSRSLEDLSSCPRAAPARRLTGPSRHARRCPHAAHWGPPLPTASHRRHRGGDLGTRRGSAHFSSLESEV
Chain of NR2B (Q13224 27-1484, species assumed, other chains not shown): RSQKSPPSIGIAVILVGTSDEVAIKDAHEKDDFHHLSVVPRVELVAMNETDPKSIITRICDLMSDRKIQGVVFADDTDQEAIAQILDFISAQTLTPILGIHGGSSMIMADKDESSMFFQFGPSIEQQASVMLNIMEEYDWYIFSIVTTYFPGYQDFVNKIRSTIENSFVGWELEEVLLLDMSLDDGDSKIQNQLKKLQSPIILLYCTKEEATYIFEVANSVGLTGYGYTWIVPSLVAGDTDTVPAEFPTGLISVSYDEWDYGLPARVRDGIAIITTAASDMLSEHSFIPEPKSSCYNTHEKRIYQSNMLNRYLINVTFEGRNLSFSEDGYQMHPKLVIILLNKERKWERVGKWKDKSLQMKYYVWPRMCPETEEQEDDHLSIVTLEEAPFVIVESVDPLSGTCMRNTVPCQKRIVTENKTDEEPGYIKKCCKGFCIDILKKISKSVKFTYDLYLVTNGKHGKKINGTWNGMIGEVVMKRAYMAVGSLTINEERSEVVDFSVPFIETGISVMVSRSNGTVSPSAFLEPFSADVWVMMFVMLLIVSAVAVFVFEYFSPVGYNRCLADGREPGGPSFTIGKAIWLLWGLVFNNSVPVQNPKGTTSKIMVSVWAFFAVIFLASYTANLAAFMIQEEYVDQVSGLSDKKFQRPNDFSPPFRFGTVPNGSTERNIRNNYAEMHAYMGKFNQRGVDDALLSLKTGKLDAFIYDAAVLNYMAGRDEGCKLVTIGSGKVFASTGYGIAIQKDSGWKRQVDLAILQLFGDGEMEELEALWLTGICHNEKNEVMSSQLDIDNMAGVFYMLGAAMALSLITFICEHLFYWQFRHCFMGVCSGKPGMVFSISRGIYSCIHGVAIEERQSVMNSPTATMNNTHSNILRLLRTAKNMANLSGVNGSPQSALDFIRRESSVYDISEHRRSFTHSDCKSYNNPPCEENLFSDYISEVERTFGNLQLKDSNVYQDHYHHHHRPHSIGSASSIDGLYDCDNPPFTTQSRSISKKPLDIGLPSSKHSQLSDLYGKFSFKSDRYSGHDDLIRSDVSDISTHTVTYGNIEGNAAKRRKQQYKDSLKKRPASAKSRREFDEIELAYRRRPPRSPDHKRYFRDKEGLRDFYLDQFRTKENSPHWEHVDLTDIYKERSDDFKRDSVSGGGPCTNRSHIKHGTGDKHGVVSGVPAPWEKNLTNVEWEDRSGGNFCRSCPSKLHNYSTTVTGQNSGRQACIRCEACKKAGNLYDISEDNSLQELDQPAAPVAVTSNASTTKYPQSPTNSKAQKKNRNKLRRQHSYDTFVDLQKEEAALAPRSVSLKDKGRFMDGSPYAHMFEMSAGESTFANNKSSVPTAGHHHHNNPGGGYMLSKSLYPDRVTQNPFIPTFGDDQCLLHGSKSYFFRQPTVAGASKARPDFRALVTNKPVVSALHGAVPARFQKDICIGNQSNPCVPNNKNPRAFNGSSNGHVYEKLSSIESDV

Row | SMILES | NMDAR2C BINDING PROFILE % 1 mM Glycine (NR2C) [%] | NMDAR2C BINDING PROFILE Conclusion (NR2C) | NMDAR2D BINDING PROFILE % 1 mM Glycine (NR2D) [%] | NMDAR2D BINDING PROFILE Conclusion (NR2D) | EC50 (NR2D) [pM] | NMDAR2B BINDING PROFILE % 1 mM Glycine (NR2B) [%] | NMDAR2B BINDING PROFILE Conclusion (NR2B; wild-type NMDAR2B) | EC50 (NR2B; wild-type NMDAR2B, 0 = no activity, read-out: NMDAR2B BINDING PROFILE −logEC50 (converted)) [pM] | NMDAR2A BINDING PROFILE % 1 mM Glycine (NR2A) [%] | NMDAR2A BINDING PROFILE Conclusion (NR2A) | EC50 (NR2C) [pM] | EC50 (NR2A) [pM]
1 | C[C@@H](O)[C@@H](C(N)=O)N1C[C@@]2(CCCN2C(=O)OC(C)(C)C)C1=O [Compound X, tert-butyl (S)-2-((2S,3R)-1-amino-3-hydroxy-1-oxobutan-2-yl)-1-oxo-2,5-diazaspiro[3,4]octane-5-carboxylate] | 59.73 | WT2C agonist | 93.58 | WT2D agonist | 1.32 | 59.55 | WT2B agonist | 147 | 41.04 | WT2A agonist | – | –
2 | CC(C)C(=O)N1CCC[C@]12CN([C@H](C(N)=O)[C@@H](C)O)C2=O [Compound Y, (2S,3R)-3-hydroxy-2-((R)-5-isobutyryl-1-oxo-2,5-diazaspiro[3,4]octan-2-yl)butanamide] | 64.24 | WT2C agonist | 54.85 | WT2D agonist | 100 | 70.74 | WT2B agonist | – | 61.76 | WT2A agonist | 3.63 | 8.91
3 | CC(C)C(=O)N1CCC[C@@]12CN([C@H](C(N)=O)[C@@H](C)O)C2=O [Compound Z, (2S,3R)-3-hydroxy-2-((S)-5-isobutyryl-1-oxo-2,5-diazaspiro[3,4]octan-2-yl)butanamide] | 47.76 | WT2C agonist | 65.32 | WT2D agonist | 6.03 | 70.49 | WT2B agonist | – | 42.5 | WT2A agonist | 3.16 | 87.1
